Source: the NIST ThermoML archive (doi:10.1007/s10765-005-8102-9)
± gives the expanded uncertainty stated by the source.

Key:
[1] = xn = mol fraction of the nth substance listed; conditions: 303.15 K, 101 kPa, Liquid
[2] = refractive index (Na D-line) (dimensionless); xn = mol fraction of the nth substance listed; conditions: 303.15 K, 101 kPa, Liquid
[3] = refractive index (Na D-line) (dimensionless); conditions: 303.15 K; 101.33 kPa; Liquid
[4] = 303.15 K; 101 kPa; Liquid

**Q.** Which mass density ([1]; x1 = 1) does the source give for `C[S+](C)[O-]` [dimethyl sulfoxide] + CCCCCCCO here?
**A.** Its mass density is 1094.9 ± 1.3 kg/m3.

**Q.** And the speed of sound ([1]; x1 = 1)?
**A.** The speed of sound was 1490.9 ± 7 m/s.

**Q.** And the refractive index ([2]; x1 = 1)?
**A.** Its refractive index is 1.4751 ± 0.0007.

**Q.** Which mass density ([1]; x2 = 0) does the source give for `CCCCO` [butan-1-ol] + C[S+](C)[O-] here?
**A.** Its mass density is 802 ± 0.8 kg/m3.

**Q.** What about the speed of sound ([1]; x2 = 0) of the same compound?
**A.** Its speed of sound is 1231 ± 4.7 m/s.

**Q.** And the refractive index ([2]; x2 = 0)?
**A.** The refractive index was 1.3946 ± 0.0007.

**Q.** With `CCCCCCO` [hexan-1-ol] as the compound, how does the refractive index [3] read?
**A.** Its refractive index is 1.4134 ± 0.0008.

**Q.** And the mass density [4]?
**A.** The mass density was 811.8 ± 1.8 kg/m3.

**Q.** What about the speed of sound [4] of the same compound?
**A.** The speed of sound was 1282 ± 6.7 m/s.

**Q.** For `CCCCCCCO` [heptan-1-ol], which refractive index [3] is on record?
**A.** Its refractive index is 1.4201 ± 0.0007.

**Q.** What about the mass density [4] of the same compound?
**A.** Its mass density is 815.7 ± 0.9 kg/m3.

**Q.** And the speed of sound [4]?
**A.** Its speed of sound is 1306 ± 6.6 m/s.

**Q.** What does the source list for `CCCCCCO` [hexan-1-ol] + C[S+](C)[O-]?
**A.** mass density ([1]; x2 = 0): 811.8 ± 1.8 kg/m3; speed of sound ([1]; x2 = 0): 1282 ± 6.7 m/s; mass density ([1]; x2 = 0.1336): 832.6 ± 1.8 kg/m3; speed of sound ([1]; x2 = 0.1336): 1300.8 ± 6.7 m/s; mass density ([1]; x2 = 0.2712): 857.6 ± 1.9 kg/m3; speed of sound ([1]; x2 = 0.2712): 1311.6 ± 6.7 m/s; mass density ([1]; x2 = 0.3808): 880.7 ± 1.9 kg/m3; speed of sound ([1]; x2 = 0.3808): 1325.3 ± 6.7 m/s; mass density ([1]; x2 = 0.4814): 904.6 ± 1.9 kg/m3; speed of sound ([1]; x2 = 0.4814): 1336.5 ± 6.7 m/s; mass density ([1]; x2 = 0.5762): 929.7 ± 2 kg/m3; speed of sound ([1]; x2 = 0.5762): 1349.5 ± 6.7 m/s; mass density ([1]; x2 = 0.666): 956.3 ± 2 kg/m3; speed of sound ([1]; x2 = 0.666): 1368 ± 6.8 m/s; mass density ([1]; x2 = 0.765): 989.2 ± 2.1 kg/m3; speed of sound ([1]; x2 = 0.765): 1395 ± 6.8 m/s; mass density ([1]; x2 = 0.848): 1021.1 ± 2.2 kg/m3; speed of sound ([1]; x2 = 0.848): 1420.5 ± 6.8 m/s; mass density ([1]; x2 = 0.9246): 1054.7 ± 2.3 kg/m3; speed of sound ([1]; x2 = 0.9246): 1448.5 ± 6.9 m/s; refractive index ([2]; x2 = 0): 1.4134 ± 0.0008; refractive index ([2]; x2 = 0.1336): 1.4149 ± 0.0008; refractive index ([2]; x2 = 0.2712): 1.4185 ± 0.0008; refractive index ([2]; x2 = 0.3808): 1.4216 ± 0.0008; refractive index ([2]; x2 = 0.4814): 1.4259 ± 0.0008; refractive index ([2]; x2 = 0.5762): 1.4311 ± 0.0008; refractive index ([2]; x2 = 0.666): 1.4372 ± 0.0007; refractive index ([2]; x2 = 0.765): 1.4448 ± 0.0007; refractive index ([2]; x2 = 0.848): 1.4535 ± 0.0007; refractive index ([2]; x2 = 0.9246): 1.4629 ± 0.0007

**Q.** What does the source list for `CCCCCCCO` [heptan-1-ol] + C[S+](C)[O-]?
**A.** mass density ([1]; x2 = 0): 815.7 ± 0.9 kg/m3; speed of sound ([1]; x2 = 0): 1306 ± 6.6 m/s; mass density ([1]; x2 = 0.1096): 825.7 ± 0.9 kg/m3; speed of sound ([1]; x2 = 0.1096): 1312.3 ± 6.6 m/s; mass density ([1]; x2 = 0.2535): 846 ± 0.9 kg/m3; speed of sound ([1]; x2 = 0.2535): 1319.5 ± 6.6 m/s; mass density ([1]; x2 = 0.3668): 866.8 ± 1 kg/m3; speed of sound ([1]; x2 = 0.3668): 1329.9 ± 6.6 m/s; mass density ([1]; x2 = 0.474): 889.4 ± 1 kg/m3; speed of sound ([1]; x2 = 0.474): 1338 ± 6.6 m/s; mass density ([1]; x2 = 0.5788): 915.8 ± 1 kg/m3; speed of sound ([1]; x2 = 0.5788): 1351.5 ± 6.7 m/s; mass density ([1]; x2 = 0.6708): 943.2 ± 1.1 kg/m3; speed of sound ([1]; x2 = 0.6708): 1369 ± 6.7 m/s; mass density ([1]; x2 = 0.7598): 973.2 ± 1.1 kg/m3; speed of sound ([1]; x2 = 0.7598): 1384.6 ± 6.7 m/s; mass density ([1]; x2 = 0.8376): 1003.5 ± 1.2 kg/m3; speed of sound ([1]; x2 = 0.8376): 1409.3 ± 6.8 m/s; mass density ([1]; x2 = 0.9031): 1034.5 ± 1.2 kg/m3; speed of sound ([1]; x2 = 0.9031): 1428.6 ± 6.8 m/s; refractive index ([2]; x2 = 0): 1.4201 ± 0.0007; refractive index ([2]; x2 = 0.1096): 1.4209 ± 0.0007; refractive index ([2]; x2 = 0.2535): 1.4242 ± 0.0007; refractive index ([2]; x2 = 0.3668): 1.4277 ± 0.0007; refractive index ([2]; x2 = 0.474): 1.4312 ± 0.0007; refractive index ([2]; x2 = 0.5788): 1.4355 ± 0.0007; refractive index ([2]; x2 = 0.6708): 1.4402 ± 0.0007; refractive index ([2]; x2 = 0.7598): 1.4458 ± 0.0007; refractive index ([2]; x2 = 0.8376): 1.4528 ± 0.0007; refractive index ([2]; x2 = 0.9031): 1.4615 ± 0.0007

**Q.** With `CCCCO` [butan-1-ol] as the compound, how does the refractive index [3] read?
**A.** Its refractive index is 1.3946 ± 0.0007.

**Q.** What about the mass density [4] of the same compound?
**A.** The mass density was 802 ± 0.8 kg/m3.

**Q.** What about the speed of sound [4] of the same compound?
**A.** The speed of sound was 1231 ± 4.7 m/s.

**Q.** For `C[S+](C)[O-]` [dimethyl sulfoxide] + CCCCCCO, which mass density ([1]; x1 = 1) is on record?
**A.** The mass density was 1094.9 ± 2.4 kg/m3.

**Q.** What about the speed of sound ([1]; x1 = 1) of the same compound?
**A.** Its speed of sound is 1490.9 ± 7 m/s.

**Q.** What about the refractive index ([2]; x1 = 1) of the same compound?
**A.** Its refractive index is 1.4751 ± 0.0007.

**Q.** Which results are given for `C[S+](C)[O-]` [dimethyl sulfoxide] + CCCCO?
**A.** mass density ([1]; x1 = 0.1034): 825.7 ± 0.8 kg/m3; speed of sound ([1]; x1 = 0.1034): 1247.5 ± 4.7 m/s; mass density ([1]; x1 = 0.2122): 851.8 ± 0.9 kg/m3; speed of sound ([1]; x1 = 0.2122): 1267.5 ± 4.8 m/s; mass density ([1]; x1 = 0.3156): 877.9 ± 0.9 kg/m3; speed of sound ([1]; x1 = 0.3156): 1288 ± 4.8 m/s; mass density ([1]; x1 = 0.4009): 900.5 ± 1 kg/m3; speed of sound ([1]; x1 = 0.4009): 1305.5 ± 4.8 m/s; mass density ([1]; x1 = 0.5073): 930.1 ± 1 kg/m3; speed of sound ([1]; x1 = 0.5073): 1327.3 ± 4.8 m/s; mass density ([1]; x1 = 0.6002): 957.2 ± 1 kg/m3; speed of sound ([1]; x1 = 0.6002): 1347.5 ± 4.8 m/s; mass density ([1]; x1 = 0.6957): 986.6 ± 1.1 kg/m3; speed of sound ([1]; x1 = 0.6957): 1371 ± 4.9 m/s; mass density ([1]; x1 = 0.8112): 1024.6 ± 1.2 kg/m3; speed of sound ([1]; x1 = 0.8112): 1406.6 ± 4.9 m/s; mass density ([1]; x1 = 0.9051): 1058.4 ± 1.2 kg/m3; speed of sound ([1]; x1 = 0.9051): 1443 ± 5 m/s; mass density ([1]; x1 = 1): 1094.9 ± 1.3 kg/m3; speed of sound ([1]; x1 = 1): 1490.9 ± 5 m/s; refractive index ([2]; x1 = 0.1034): 1.4001 ± 0.0007; refractive index ([2]; x1 = 0.2122): 1.4064 ± 0.0007; refractive index ([2]; x1 = 0.3156): 1.4127 ± 0.0007; refractive index ([2]; x1 = 0.4009): 1.4185 ± 0.0007; refractive index ([2]; x1 = 0.5073): 1.4263 ± 0.0007; refractive index ([2]; x1 = 0.6002): 1.4335 ± 0.0007; refractive index ([2]; x1 = 0.6957): 1.4417 ± 0.0007; refractive index ([2]; x1 = 0.8112): 1.4527 ± 0.0007; refractive index ([2]; x1 = 0.9051): 1.4633 ± 0.0007; refractive index ([2]; x1 = 1): 1.4751 ± 0.0007

**Q.** For `C[S+](C)[O-]` [dimethyl sulfoxide], which refractive index [3] is on record?
**A.** Its refractive index is 1.4751 ± 0.0007.

**Q.** What about the mass density [4] of the same compound?
**A.** The mass density was 1094.9 ± 1.3 kg/m3.

**Q.** And the speed of sound [4]?
**A.** Its speed of sound is 1490.9 ± 5 m/s.
